Marks after values point to notes of the source that are not given here.
Assays:
[1] = pH 2.7
[2] = test system: Phytophthora infestans; assay: microbe, parasite or virus in culture; assay type: cell-based; details: 8 days incubation
[3] = 0.25 μg/mL of active ingredient

Compound | Log P [1] | Eff. % (inhibition of fungal growth) [2, 3] | Eff. % (inhibition of fungal growth) ([2]; 20 μg/mL of active ingredient)
CC(C)OC(=O)C(Br)C(=O)N1CCC(c2nc(C3=NOC(c4ccccc4C=O)C3)cs2)CC1 (stereo not drawn) [Example I-29] | 3.11^[a] | – | –
CC(C)(C)OC(=O)CC(=O)N1CCC(c2nc(C3=NOC(c4ccccc4OS(C)(=O)=O)C3)cs2)CC1 (stereo not drawn) [Example I-81] | 2.80^[a] | – | –
CS(=O)(=O)Oc1cccc(Cl)c1C1CC(c2csc(C3CCN(C(=O)C(C(=O)OCc4ccccc4)n4nc(C(F)F)cc4C(F)F)CC3)n2)=NO1 (stereo not drawn) [Example I-61] | 3.98^[a] | 100% | –
CCOC(=O)CC(=O)N1CCC(c2nc(C3=NOC(c4ccccc4C=O)C3)cs2)CC1 (stereo not drawn) [Example I-53] | 2.34^[a] | – | 100%
C#CCOc1ccccc1C1CC(c2csc(C3CCN(C(=O)CC(=O)OC(C)(C)C)CC3)n2)=NO1 (stereo not drawn) [Example I-82] | 3.22^[a] | – | –
C#CCOc1cccc(F)c1C1CC(c2csc(C3CCN(C(=O)C(Br)C(=O)OC(CC)CCCCC)CC3)n2)=NO1 (stereo not drawn) [Example I-35] | 4.89^[a] | – | –
CCOC(=O)C(C(=O)N1CCC(c2nc(C3=NOC(c4ccccc4C=O)C3)cs2)CC1)n1nc(C(F)F)cc1C(F)F (stereo not drawn) [Example I-14] | 3.40^[a] | – | –
CC(C)(C)OC(=O)C(Br)C(=O)N1CCC(c2nc(C3=NOC(c4ccccc4OS(C)(=O)=O)C3)cs2)CC1 (stereo not drawn) [Example I-74] | 3.24^[a] | – | –
C#CCOc1ccccc1C1CC(c2csc(C3CCN(C(=O)CC(=O)OC(CC)CCCCC)CC3)n2)=NO1 (stereo not drawn) [Example I-57] | 4.56^[a] | – | –
CC(C)(C)OC(=O)C(C(=O)N1CCC(c2nc(C3=NOC(c4c(Cl)cccc4OS(C)(=O)=O)C3)cs2)CC1)n1nc(C(F)F)cc1C(F)F (stereo not drawn) [Example I-64] | 4.00^[a] | 100% | –
CCCCCC(CC)OC(=O)CC(=O)N1CCC(c2nc(C3=NOC(c4c(F)cccc4OS(C)(=O)=O)C3)cs2)CC1 (stereo not drawn) [Example I-48] | 4.03^[a] | – | –
CC(C)OC(=O)C(Br)C(=O)N1CCC(c2nc(C3=NOC(c4ccccc4OS(C)(=O)=O)C3)cs2)CC1 (stereo not drawn) [Example I-37] | 2.99^[a] | – | –
C#CCOc1cccc(Cl)c1C1CC(c2csc(C3CCN(C(=O)CC(=O)OCc4ccccc4)CC3)n2)=NO1 (stereo not drawn) [Example I-78] | 3.45^[a] | 88% | –
C#CCOc1cccc(F)c1C1CC(c2csc(C3CCN(C(=O)C(C(=O)OC(CC)CCCCC)n4nc(C(F)F)cc4C(F)F)CC3)n2)=NO1 (stereo not drawn) [Example I-18] | 5.22^[a] | – | –
CC(C)(C)OC(=O)CC(=O)N1CCC(c2nc(C3=NOC(c4c(Cl)cccc4OS(C)(=O)=O)C3)cs2)CC1 (stereo not drawn) [Example I-79] | 3.04^[a] | – | –
C#CCOc1ccccc1C1CC(c2csc(C3CCN(C(=O)C(Br)C(=O)OC(C)(C)C)CC3)n2)=NO1 (stereo not drawn) [Example I-73] | 3.68^[a] | – | –
CCOC(=O)C(Br)C(=O)N1CCC(c2nc(C3=NOC(c4ccccc4C=O)C3)cs2)CC1 (stereo not drawn) [Example I-25] | 2.82^[a] | – | 100%
C#CCOc1ccccc1C1CC(c2csc(C3CCN(C(=O)CC(=O)OCc4ccccc4)CC3)n2)=NO1 (stereo not drawn) [Example I-77] | 3.30^[a] | – | –
C#CCOc1ccccc1C1CC(c2csc(C3CCN(C(=O)C(Br)C(=O)OC(C)C)CC3)n2)=NO1 (stereo not drawn) [Example I-32] | 3.43^[a] | – | –
CC(C)OC(=O)CC(=O)N1CCC(c2nc(C3=NOC(c4ccccc4OS(C)(=O)=O)C3)cs2)CC1 (stereo not drawn) [Example I-58] | 2.56^[a] | – | 100%

Compound | Log P [1] | Eff. % (inhibition of fungal growth) [2, 3] | Eff. % (inhibition of fungal growth) ([2]; 20 μg/mL of active ingredient)
CS(=O)(=O)Oc1ccccc1C1CC(c2csc(C3CCN(C(=O)CC(=O)OCc4ccccc4)CC3)n2)=NO1 (stereo not drawn) [Example I-75] | 2.89^[a] | – | –
CCCCCC(CC)OC(=O)C(C(=O)N1CCC(c2nc(C3=NOC(c4ccccc4C=O)C3)cs2)CC1)n1nc(C(F)F)cc1C(F)F (stereo not drawn) [Example I-21] | 5.20^[a] | – | –
CC(C)OC(=O)C(Br)C(=O)N1CCC(c2nc(C3=NOC(c4c(F)cccc4OS(C)(=O)=O)C3)cs2)CC1 (stereo not drawn) [Example I-23] | 2.97^[a] | 100% | –
C#CCOc1cccc(F)c1C1CC(c2csc(C3CCN(C(=O)C(Br)C(=O)OCCOC)CC3)n2)=NO1 (stereo not drawn) [Example I-24] | 2.85^[a] | – | –
C#CCOc1ccccc1C1CC(c2csc(C3CCN(C(=O)C(Br)C(=O)OCc4ccccc4)CC3)n2)=NO1 (stereo not drawn) [Example I-70] | 3.72^[a] | – | –
CS(=O)(=O)Oc1ccccc1C1CC(c2csc(C3CCN(C(=O)C(Br)C(=O)OCc4ccccc4)CC3)n2)=NO1 (stereo not drawn) [Example I-68] | 3.31^[a] | – | –
COCCOC(=O)C(Br)C(=O)N1CCC(c2nc(C3=NOC(c4ccccc4OS(C)(=O)=O)C3)cs2)CC1 (stereo not drawn) [Example I-36] | 2.53^[a] | – | –
CCCCCC(CC)OC(=O)C(C(=O)N1CCC(c2nc(C3=NOC(c4c(F)cccc4OS(C)(=O)=O)C3)cs2)CC1)n1nc(C(F)F)cc1C(F)F (stereo not drawn) [Example I-22] | 4.04^[a] | – | –
CCOC(=O)C(C(=O)N1CCC(c2nc(C3=NOC(c4ccccc4OS(C)(=O)=O)C3)cs2)CC1)n1cc(C(F)(F)F)nc1C (stereo not drawn) [Example I-12] | 2.99^[a] | – | –
C#CCOc1cccc(Cl)c1C1CC(c2csc(C3CCN(C(=O)CC(=O)OC(C)(C)C)CC3)n2)=NO1 (stereo not drawn) [Example I-80] | 3.36^[a] | 100% | –
C#CCOc1cccc(Cl)c1C1CC(c2csc(C3CCN(C(=O)C(Br)C(=O)OC(C)(C)C)CC3)n2)=NO1 (stereo not drawn) [Example I-71] | 3.84^[a] | 100% | –
C#CCOc1cccc(F)c1C1CC(c2csc(C3CCN(C(=O)CC(=O)OCCOC)CC3)n2)=NO1 (stereo not drawn) [Example I-43] | 2.43^[a] | – | –
CC(C)(C)OC(=O)C(Br)C(=O)N1CCC(c2nc(C3=NOC(c4c(Cl)cccc4OS(C)(=O)=O)C3)cs2)CC1 (stereo not drawn) [Example I-72] | 3.50^[a] | – | –
CS(=O)(=O)Oc1cccc(Cl)c1C1CC(c2csc(C3CCN(C(=O)CC(=O)OCc4ccccc4)CC3)n2)=NO1 (stereo not drawn) [Example I-76] | 3.12^[a] | – | –
C#CCOc1cccc(Cl)c1C1CC(c2csc(C3CCN(C(=O)C(Br)C(=O)OCc4ccccc4)CC3)n2)=NO1 (stereo not drawn) [Example I-69] | 3.85^[a] | – | –
C#CCOc1cccc(Cl)c1C1CC(c2csc(C3CCN(C(=O)C(Br)C(=O)OCC)CC3)n2)=NO1 (stereo not drawn) [Example I-31] | 3.20^[a] | – | –
CCCCCC(CC)OC(=O)C(Br)C(=O)N1CCC(c2nc(C3=NOC(c4ccccc4OS(C)(=O)=O)C3)cs2)CC1 (stereo not drawn) [Example I-39] | 4.55^[a] | – | –
CCOC(=O)CC(=O)N1CCC(c2nc(C3=NOC(c4c(F)cccc4OS(C)(=O)=O)C3)cs2)CC1 (stereo not drawn) [Example I-54] | 2.29^[a] | – | –
CS(=O)(=O)Oc1cccc(Cl)c1C1CC(c2csc(C3CCN(C(=O)C(Br)C(=O)OCc4ccccc4)CC3)n2)=NO1 (stereo not drawn) [Example I-67] | 3.54^[a] | – | –
